Assay results as given in ChEMBL document CHEMBL4257084, “Novel functionalized 5-(phenoxymethyl)-1,3-dioxane analogs exhibiting cytochrome p450 inhibition and their method of use” (2016).

Target: T1, Cytochrome P450 11B1, mitochondrial (Homo sapiens, UniProt P15538)
T1 sequence (P15538 whole entry): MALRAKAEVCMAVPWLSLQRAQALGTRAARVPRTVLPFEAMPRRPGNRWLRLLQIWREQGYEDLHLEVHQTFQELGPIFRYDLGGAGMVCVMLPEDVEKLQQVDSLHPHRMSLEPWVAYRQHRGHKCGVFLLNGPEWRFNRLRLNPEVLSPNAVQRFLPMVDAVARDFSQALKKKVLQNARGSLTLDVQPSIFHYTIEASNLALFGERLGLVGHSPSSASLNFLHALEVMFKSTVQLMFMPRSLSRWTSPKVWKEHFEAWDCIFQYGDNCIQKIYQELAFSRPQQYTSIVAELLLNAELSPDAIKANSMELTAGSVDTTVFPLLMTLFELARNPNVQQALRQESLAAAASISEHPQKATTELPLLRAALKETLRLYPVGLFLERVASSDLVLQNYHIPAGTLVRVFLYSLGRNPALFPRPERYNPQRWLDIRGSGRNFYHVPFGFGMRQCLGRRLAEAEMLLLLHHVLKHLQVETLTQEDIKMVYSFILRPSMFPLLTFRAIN
Assay: Inhibition of recombinant CYP11 (unknown origin) expressed in human AD293 cells assessed as reduction in cortisol level preincubated for 60 mins followed by 11-deoxy cortisol substrate addition and measured after 12 hrs by LC-MS method
Type: cell-based

CS(=O)(=O)N1CCN(c2ccc(CO[C@H]3CO[C@@](Cn4ccnc4)(c4ccccc4Cl)OC3)cc2)CC1
IC50: 10 µM
